Laboratory results: the supplement of paper PMC9663587

Experiments:
Assay in all cases: area over the GR curve, 72 h; higher = more effect;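 also: Dye Drop or Deep Dye Drop imaging of viable cells in 384-well plates (Hoechst nuclei, LIVE/DEAD dye), nine half-log doses, GR normalized to DMSO controls and time-zero plates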
MGH312 = test system: MGH312
MDAMB415 = test system: MDAMB415
HCC70 = test system: HCC70
UACC893 = test system: UACC893
MDAMB175VII = test system: MDAMB175VII
MCF10A = test system: MCF10A
SUM44PE = test system: SUM44PE
MCF12A = test system: MCF12A
MDAMB436 = test system: MDAMB436
MDAMB453 = test system: MDAMB453
HCC1143 = test system: HCC1143
BT474 = test system: BT474
HCC202 = test system: HCC202
HCC1187 = test system: HCC1187

| SMILES | area over the GR curve (MGH312) [GR] | area over the GR curve (MDAMB415) [GR] | area over the GR curve (HCC70) [GR] | area over the GR curve (UACC893) [GR] | area over the GR curve (MDAMB175VII) [GR] | area over the GR curve (MCF10A) [GR] | area over the GR curve (SUM44PE) [GR] | area over the GR curve (MCF12A) [GR] | area over the GR curve (MDAMB436) [GR] | area over the GR curve (MDAMB453) [GR] | area over the GR curve (HCC1143) [GR] | area over the GR curve (BT474) [GR] | area over the GR curve (HCC202) [GR] | area over the GR curve (HCC1187) [GR] |
| --- | --- | --- | --- | --- | --- | --- | --- | --- | --- | --- | --- | --- | --- | --- |
| CO[C@H]1C[C@@H]2CC[C@@H](C)[C@@](O)(O2)C(=O)C(=O)N2CCCC[C@H]2C(=O)O[C@H]([C@H](C)C[C@@H]2CC[C@@H](OCCO)[C@H](OC)C2)CC(=O)[C@H](C)/C=C(\C)[C@@H](O)[C@@H](OC)C(=O)[C@H](C)C[C@H](C)/C=C/C=C/C=C/1C [Everolimus] (max 10 µM) | 0.798 | 0.807 | 0.476 | 0.714 | 1.14 | 0.113 | 0.734 | 0.273 | 0.314 | 0.888 | 0.343 | 0.898 | 0.499 | 0.287 |
| CCC(=O)Nc1ccc(C(=O)Nc2ccc(Nc3ncc4c(n3)N(C)c3ccc(C)cc3C(=O)N4C)cc2)cc1 [FMF-03-145-1] | 1.28 | 0.845 | 1.31 | 0.869 | 0.919 | 1.05 | 1.15 | 0.345 | 0.465 | 0.392 | 0.389 | 0.951 | 0.602 | 1.51 |
| COc1cc(N2CCN(C)CC2)ccc1Nc1ncc2c(n1)N(C)c1ccccc1C(=O)N2CC(F)(F)F [FMF-03-146-1] | 0.025 | 0.0297 | -0.0097 | -0.0085 | 0.0733 | -0.0018 | 0.016 | 0.0258 | -0.005 | 0.0207 | 0.0546 | 0.0118 | 0.0146 | -0.332 |
| CN1CC[C@H](c2c(O)cc(O)c3c(=O)cc(-c4ccccc4Cl)oc23)[C@H](O)C1 [Flavopiridol] (max 1 µM) | 0.452 | 0.284 | 0.415 | 0.321 | 0.413 | 0.277 | 0.406 | 0.167 | 0.224 | 0.272 | 0.235 | 0.371 | 0.273 | 0.0933 |
| CC(C)n1nc(-c2ccc3oc(N)nc3c2)c2c(N)ncnc21 [INK128/MLN0128] (max 3.162 µM) | 1.22 | 0.692 | 0.702 | 0.745 | 1.17 | 0.467 | 0.781 | 0.495 | 0.429 | 0.756 | 0.474 | 0.834 | 0.581 | 0.416 |
| CC(C)NC[C@@H](C(=O)N1CCN(c2ncnc3c2[C@H](C)C[C@H]3O)CC1)c1ccc(Cl)cc1 [Ipatasertib/GDC0068] (max 10 µM) | 0.933 | 0.758 | 0.488 | 0.529 | 0.456 | 0.06 | 0.412 | 0.0679 | 0.104 | 0.27 | 0.0662 | 0.344 | 0.169 | 0.286 |
| CN(C)C(=O)c1cc2cnc(Nc3ccc(N4CCNCC4)cn3)nc2n1C1CCCC1 [LEE011/Ribociclib] (max 10 µM) | -0.0019 | 0.613 | -0.0535 | 0.53 | 0.8 | 0.235 | 0.357 | 0.0926 | -0.012 | 0.555 | 0.27 | 0.412 | 0.11 | -0.0536 |
| CCNC(=O)c1noc(-c2cc(C(C)C)c(O)cc2O)c1-c1ccc(CN2CCOCC2)cc1 [Luminespib/NVP-AUY922] (max 1 µM) | 0.962 | 0.613 | 0.732 | 1.07 | 0.774 | 0.613 | 0.804 | 0.619 | 0.633 | 0.848 | 0.693 | 0.781 | 0.431 | 0.919 |
| CCOc1cc2ncc(C#N)c(Nc3ccc(OCc4ccccn4)c(Cl)c3)c2cc1NC(=O)/C=C/CN(C)C [Neratinib/HKI272] (max 3.162 µM) | 0.373 | 0.0594 | 0.317 | 1.17 | 1.45 | 0.344 | 0.568 | 0.194 | 0.188 | 0.553 | 0.238 | 1.43 | 0.453 | 0.181 |
| O=C(c1cc(Cc2n[nH]c(=O)c3ccccc23)ccc1F)N1CCN(C(=O)C2CC2)CC1 [Olaparib/AZD2281] (max 10 µM) | 0.0149 | -0.0472 | -0.0522 | 0.0342 | 0.0102 | 0.0408 | -0.0366 | 0.0468 | 0.305 | 0.241 | 0.0925 | 0.0431 | 0.127 | 0.157 |
| CC(=O)O[C@H]1C(=O)[C@@]2(C)[C@H]([C@H](OC(=O)c3ccccc3)[C@]3(O)C[C@H](OC(=O)[C@H](O)[C@@H](NC(=O)c4ccccc4)c4ccccc4)C(C)=C1C3(C)C)[C@]1(OC(C)=O)CO[C@@H]1C[C@@H]2O [Paclitaxel] (max 1 µM) | 0.973 | 0.948 | 0.977 | 0.905 | 0.837 | 0.702 | 0.953 | 0.586 | 0.708 | 0.658 | 0.839 | 0.873 | 0.552 | 1.34 |
| CS(=O)(=O)N1CCN(Cc2cc3nc(-c4cccc5[nH]ncc45)nc(N4CCOCC4)c3s2)CC1 [Pictilisib/GDC0941] (max 10 µM) | 0.771 | 0.378 | 0.573 | 0.323 | 0.417 | 0.262 | 0.392 | 0.089 | 0.133 | 0.391 | 0.32 | 0.588 | 0.431 | 0.374 |
| O=C1NC(=NCc2cccs2)SC1=Cc1ccc2ncccc2c1 [R0-3306] (max 10 µM) | 0.0994 | 0.0262 | 0.0814 | 0.0158 | 0.239 | 0.115 | 0.276 | 0.041 | 0.0623 | 0.102 | 0.262 | 0.22 | 0.14 | 0.017 |
| CNCc1ccc(-c2[nH]c3cc(F)cc4c3c2CCNC4=O)cc1 [Rucaparib] (max 10 µM) | 0.189 | 0.11 | -0.0415 | 0.164 | 0.136 | 0.0413 | 0.0038 | 0.0783 | 0.399 | 0.14 | 0.0731 | 0.122 | 0.207 | -0.119 |
| CC1(N)CCN(c2cnc(-c3cccc(Cl)c3Cl)c(N)n2)CC1 [SHP099] (max 10 µM) | -0.0302 | 0.0605 | 0.074 | -0.0199 | 0.238 | 0.081 | 0.075 | 0.0144 | -0.0036 | 0.0286 | 0.0677 | -0.022 | 0.051 | -0.341 |
| CN1CCN(CCOc2cc(OC3CCOCC3)c3c(Nc4c(Cl)ccc5c4OCO5)ncnc3c2)CC1 [Saracatinib/AZD0530] (max 10 µM) | 0.537 | 0.208 | 0.573 | 0.11 | 0.762 | 0.125 | 0.112 | 0.0317 | 0.0385 | 0.0491 | 0.237 | 0.303 | 0.396 | 0.457 |
| Cc1cc(C(C)Nc2ccccc2)c2nc(N3CCOCC3)cc(=O)n2c1 (stereo not drawn) [TGX221] (max 10 µM) | 0.472 | 0.224 | 0.467 | -0.111 | -0.0733 | 0.005 | -0.155 | -0.0153 | -0.0103 | -0.0643 | 0.0331 | -0.0718 | -0.0253 | 0.305 |
| CN(C)C/C=C/C(=O)Nc1ccc(C(=O)Nc2cccc(Nc3ncc(Cl)c(-c4c[nH]c5ccccc45)n3)c2)cc1 [THZ1] (max 1 µM) | 0.97 | 0.453 | 0.762 | 0.542 | 0.487 | 0.36 | 0.706 | 0.256 | 0.196 | 0.553 | 0.487 | 0.686 | 0.42 | 0.71 |
| CN(C)C/C=C/C(=O)Nc1ccc(C(=O)N2CCC[C@@H](Nc3ncc(Cl)c(-c4c[nH]c5ccccc45)n3)C2)cc1 [THZ531] (max 1 µM) | 0.636 | 0.434 | 0.462 | 0.437 | 0.567 | 0.162 | 0.177 | 0.0965 | 0.158 | 0.537 | 0.266 | 0.572 | 0.3 | 0.129 |
| CN(C)C/C=C/C(=O)Nc1ccc(C(=O)Nc2cccc(Nc3cc(-c4c[nH]c5ccccc45)ncn3)c2)cc1 [THZ-P1-2] (max 10 µM) | 0.127 | 0.683 | 0.326 | 0.573 | 0.458 | 0.13 | 0.619 | 0.0465 | 0.272 | 0.533 | 0.216 | -0.079 | 0.0733 | 0.331 |
| Cc1nc(-c2cn3c(n2)-c2ccc(-c4cnn(C(C)(C)C(N)=O)c4)cc2OCC3)n(C(C)C)n1 [Taselisib/GDC0032] (max 10 µM) | 0.886 | 0.516 | 0.548 | 1.43 | 1.32 | 0.484 | 1.02 | 0.263 | 0.173 | 1.01 | 0.476 | 1.43 | 0.791 | 0.497 |
| O=C1NC(=O)[C@@H](c2cn3c4c(cccc24)CCC3)[C@@H]1c1c[nH]c2ccccc12 [Tivantinib/ARQ197] (max 10 µM) | 0.396 | 0.213 | 0.474 | 0.405 | 0.531 | 0.451 | 0.762 | 0.374 | 0.421 | 0.404 | 0.498 | 0.309 | 0.277 | 0.891 |
| Nc1ccc(-c2ccc3ncc4ccc(=O)n(-c5cccc(C(F)(F)F)c5)c4c3c2)cn1 [Torin2] (max 1 µM) | 0.816 | 0.627 | 0.645 | 0.698 | 1.04 | 0.337 | 0.737 | 0.327 | 0.337 | 0.679 | 0.362 | 0.604 | 0.473 | 0.588 |
| CC[C@@H]1C(=O)N(C)c2cnc(Nc3ccc(C(=O)N[C@H]4CC[C@H](N5CCN(CC6CC6)CC5)CC4)cc3OC)nc2N1C(C)C [Volasertib/BI6727] (max 1 µM) | 0.801 | 0.546 | 0.579 | 0.813 | 0.449 | 0.447 | 0.623 | 0.321 | 0.662 | 0.488 | 0.729 | 0.636 | 0.38 | 0.883 |
| O=C(CCCCCCC(=O)Nc1ccccc1)NO [Vorinostat] (max 10 µM) | 0.37 | 0.172 | 0.38 | 0.161 | 0.445 | 0.168 | 0.181 | 0.0874 | 0.163 | 0.263 | 0.294 | 0.136 | 0.202 | 0.303 |
| C=CC(=O)Nc1ccc(C(=O)Nc2[nH]nc3c2CN(C(=O)N[C@H](CN(C)C)c2ccccc2)C3(C)C)cc1 [YKL-5-124] (max 10 µM) | 0.923 | 0.664 | 1.46 | 0.765 | 0.989 | 0.921 | 1.16 | 0.803 | 0.584 | 0.834 | 0.788 | 0.944 | 0.706 | 0.822 |
| CN1CCN(C(=O)c2ccc3cc(CCNc4ncnc5ccc(C#N)cc45)ccc3c2)CC1 [senexin b] (max 10 µM) | 0.418 | 0.173 | 0.209 | 0.185 | 0.427 | -0.0308 | 0.369 | 0.11 | 0.0859 | 0.193 | 0.22 | 0.0613 | 0.182 | -0.306 |
